Read-outs that look alike come from different tables or passages of the source.
Columns and labels:
BK virus = test: Antiviral activity against BK virus in RPTEC cells (viral DNA by qPCR, 5 days); format: cell-based; conditions: for EC50: Betapolyomavirus hominis, RPTEC, RPTEC cells
Description: In order to test the activity of CMX001 to inhibit replication of BK virus, stocks of BK virus were prepared in HFF cells and dilutions of the virus stocks were used to infect primary human renal tubular epithelial cells (RPTECs). CMX001 were then added to the wells containing the infected cells and the plates were incubated for 5 days. Total DNA was prepared from the plates and viral DNA was quantified by qPCR.

Caki-2 = test: Cell proliferation assay (MTS or SRB), Caki-2; format: cell-based; conditions: Homo sapiens, 72 h; Caki-2, Kidney, 3 days; read-out: IC50 (cell growth inhibition)
Description: (§1) In vitro cell proliferation assays were performed using a 96-well plate based MTSassay (CellTiter 96° AqueousOne Solution Cell Proliferation Assay, Promega) or SRB (Sulforhodamine-B) assay (1-3). Briefly, cells were plated in 100 μl medium on day 0 in 96-well microtiter plates (Falcon #3072). On day 1, 10 μl of serial dilutions of each compound (Nine 1:2 dilutions with a starting concentration of 100 μM; in some cases, a starting concentration of 400 μM (CMX001 or Cidofovir) or 1 μM (some standard agents)) were added in triplicates to the plates. For standard agents using DMSO as solvent, serial dilutions of DMSO with a starting concentration of 0.5% were also included as a vehicle control.
(§2) After incubation for 3 days at 37° C. in a humidified incubator, viable cells were measured either by MTS or SRB assay. For MTS assay, 20 μl of a 20:1 mixture of (3-(4,5-dimethylthiazol-2-yl)-5-(3-carboxymethoxyphenyl)-2-(4-sulfophenyl)-2H-tetrazolium, inner salt (MTS, 2 mg/ml) and an electron coupling reagent, phenazine methosulfate (PMS, 0.92 mg/ml in DPBS), was added to each well and incubated for 3 hours at 37° C. Absorbance was measured using a BioTek Synergy™ HT Multiple Detection microplate reader at 490 nm. For SRB assay, cells were fixed in situ with 50 μL of cold trichloroacetic acid (TCA, final concentration at 10% w/v) for 60 minutes. Cells were then washed 5 times with H2O and air-dried.
(§3) Next, cells were stained with 20 μL of 0.2% SRB in 1% acetic acid and incubated at room temperature for 30 minutes and unbound SRB was removed by washing 5 times with 1% acetic acid and air-dried. Finally, bound SRB stain was solubilized in 50 μL of 50 μM Tris buffer before taking an optical density measurement at 570 nm using the BioTek microplate reader. The growth inhibition data were expressed as the percentage of cell survival calculated from the background corrected absorbance. The surviving fraction of cells was determined by dividing the mean absorbance values of the test agent-treated samples by the mean absorbance values of untreated control. […]

SCaBER = test: Cell proliferation assay (MTS or SRB), SCaBER; format: cell-based; conditions: Homo sapiens, 72 h, Bladder, 3 days, read-out: IC50 (cell growth inhibition)
Description: as §1, §2, §3

DU 145 = test: Cell proliferation assay (MTS or SRB), DU 145; format: cell-based; conditions: Homo sapiens, 72 h; DU 145, Prostate, 3 days; read-out: IC50 (cell growth inhibition)
Description: as §1, §2, §3

MDA-231 = test: Cell proliferation assay (MTS or SRB), MDA-231; format: cell-based; conditions: Homo sapiens, MDA-MB-231, 72 h; MDA-231, Breast, 3 days; read-out: IC50 (cell growth inhibition)
Description: as §1, §2, §3

MCF-7 = test: Cell proliferation assay (MTS or SRB), MCF-7; format: cell-based; conditions: Homo sapiens, MCF7, 72 h; MCF-7, Breast, 3 days; read-out: IC50 (cell growth inhibition)
Description: as §1, §2, §3

PANC-1 = test: Cell proliferation assay (MTS or SRB), PANC-1; format: cell-based; conditions: Homo sapiens, 72 h; PANC-1, Pancreatic, 3 days; read-out: IC50 (cell growth inhibition)
Description: as §1, §2, §3

MIA PaCa-2 = test: Cell proliferation assay (MTS or SRB), MIA PaCa-2; format: cell-based; conditions: Homo sapiens, 72 h; MIA PaCa-2, Pancreatic, 3 days; read-out: IC50 (cell growth inhibition)
Description: as §1, §2, §3

HT-29 = test: Cell proliferation assay (MTS or SRB), HT-29; format: cell-based, human; conditions: Homo sapiens, 72 h; HT-29, Colon, 3 days; read-out: IC50 (cell growth inhibition)
Description: as §1, §2, §3

HCT-116 = test: Cell proliferation assay (MTS or SRB), HCT-116; format: cell-based, human; conditions: Homo sapiens, 72 h; HCT-116, Colon, 3 days; read-out: IC50 (cell growth inhibition)
Description: as §1, §2, §3

H460 = test: Cell proliferation assay (MTS or SRB), H460; format: cell-based; conditions: Homo sapiens, NCI-H460, 72 h; H460, Lung, 3 days; read-out: IC50 (cell growth inhibition)
Description: as §1, §2, §3

A2058 = test: Cell proliferation assay (MTS or SRB), A2058; format: cell-based; conditions: Homo sapiens, 72 h; A2058, Skin (melanoma), 3 days; read-out: IC50 (cell growth inhibition)
Description: as §1, §2
(§4) Next, cells were stained with 20 μL of 0.2% SRB in 1% acetic acid and incubated at room temperature for 30 minutes and unbound SRB was removed by washing 5 times with 1% acetic acid and air-dried. Finally, bound SRB stain was solubilized in 50 μL of 50 μM Tris buffer before taking an optical density measurement at 570 nm using the BioTek microplate reader. The growth inhibition data were expressed as the percentage of cell survival calculated from the background corrected absorbance. The surviving fraction of cells was determined by dividing the mean absorbance values of the test agent-treated samples by the mean absorbance values of untreated control.
(§5) Raw data were acquired using a BioTek Synergy™ HT Multiple Detection microplate reader and imported into Microsoft Excel for analysis. The average signal of each treatment was calculated from the triplicates after subtracting the blank signals. The percentage survival values were calculated using the following formula: % survival=(average signal of the drug treatment/average signal of untreated controls)×100. The data were finally imported into the Prism 4 software (GraphPad Software, San Diego, Calif.) to generate the dose-activity curves using non-linear regression curve fit and to calculate the IC50 values.

SK-MEL-2 = test: Cell proliferation assay (MTS or SRB), SK-MEL-2; format: cell-based; conditions: Homo sapiens, 72 h; SK-MEL-2, Skin (melanoma), 3 days; read-out: IC50 (cell growth inhibition)
Description: as §1, §2, §4, §5

C33A = test: Cell proliferation assay (MTS or SRB), C33A; format: cell-based, human; conditions: Homo sapiens, C-33-A, 72 h, Cervical, 3 days, read-out: IC50 (cell growth inhibition)
Description: as §1, §2, §3

SiHa = test: Cell proliferation assay (MTS or SRB), SiHa; format: cell-based, human; conditions: Homo sapiens, 72 h, Cervical, 3 days, read-out: IC50 (cell growth inhibition)
Description: as §1, §2, §3

OVCAR-3 = test: Cell proliferation assay (MTS or SRB), OVCAR-3; format: cell-based, human; conditions: Homo sapiens, 72 h; OVCAR-3, Ovarian, 3 days; read-out: IC50 (cell growth inhibition)
Description: as §1, §2, §3

SK-HEP-1 = test: Cell proliferation assay (MTS or SRB), SK-HEP-1; format: cell-based; conditions: Homo sapiens, SK-HEP1, 72 h; SK-HEP-1, Liver, 3 days; read-out: IC50 (cell growth inhibition)
Description: as §1, §2, §3

THLE-3 = test: Cell proliferation assay (MTS or SRB), THLE-3; format: cell-based; conditions: Homo sapiens, THLE3, 72 h; THLE-3, Liver (Normal), SV40 large T immortalized, 3 days; read-out: IC50 (cell growth inhibition)
Description: as §1
After incubation for 3 days at 37° C. in a humidified incubator, viable cells were measured either by MTS or SRB assay. […]
as §3, with “absorbance.” for “absorbance. The surviving fraction of cells was determined by dividing the mean absorbance values of the test agent-treated samples by the mean absorbance values of untreated control.”

| Compound | IC50 (Caki-2) | IC50 (SCaBER) | IC50 (DU 145) | IC50 (MDA-231) | IC50 (MCF-7) | IC50 (PANC-1) | IC50 (MIA PaCa-2) | IC50 (HT-29) | IC50 (HCT-116) | IC50 (H460) | IC50 (A2058) | IC50 (SK-MEL-2) | IC50 (C33A) | IC50 (SiHa) | IC50 (OVCAR-3) | IC50 (SK-HEP-1) | IC50 (THLE-3) | also measured |
| --- | --- | --- | --- | --- | --- | --- | --- | --- | --- | --- | --- | --- | --- | --- | --- | --- | --- | --- |
| CCCCCCCCCCCCCCCCOCCCOP(=O)(O)CO[C@H](CO)Cn1ccc(N)nc1=O [CMX001] | 60 µM | 82.1 µM | 19 µM | 11.2 µM | 62 µM | 91.5 µM | 14.6 µM | 48.6 µM | 20.9 µM | 12.4 µM | 21.7 µM | 70.5 µM | 14.3 µM | 43.1 µM | 73.3 µM | 7.4 µM | 7 µM | EC50 (BK virus; virus dilution 1:10): 0.016 µM; EC50 (BK virus; virus dilution 1:50): 0.0035 µM; EC50 (BK virus; virus dilution 1:100): 0.0037 µM; activity against BK virus replication (BK virus; RPTECs, in words): good activity |
| Nc1ccn(C[C@@H](CO)OCP(=O)(O)O)c(=O)n1 [cidofovir] | > 100 µM | > 100 µM | > 100 µM | > 100 µM | > 100 µM | > 100 µM | > 100 µM | > 100 µM | > 100 µM | > 100 µM | > 100 µM | > 100 µM | 96.7 µM | 100 µM | > 100 µM | > 100 µM | > 100 µM | EC50 (BK virus; virus dilution 1:10, read-out: EC50): 2 µM; EC50 (BK virus; virus dilution 1:50, read-out: EC50): 0.65 µM; EC50 (BK virus; virus dilution 1:100, read-out: EC50): 0.44 µM |

— patent publication US20120164104A1, “Composition and Methods of Treating Viral Infections and Viral Induced Tumors” (Chimerix, Inc., priority 2009, published 2012)
